This is an account of results in ChEMBL document CHEMBL1127711, “Preparation of a novel series of phosphonate norstatine renin inhibitors” (Bioorg Med Chem Lett, 1994).

In this test the target is T1, Renin (Homo sapiens, UniProt P00797).
T1 sequence (P00797 whole entry): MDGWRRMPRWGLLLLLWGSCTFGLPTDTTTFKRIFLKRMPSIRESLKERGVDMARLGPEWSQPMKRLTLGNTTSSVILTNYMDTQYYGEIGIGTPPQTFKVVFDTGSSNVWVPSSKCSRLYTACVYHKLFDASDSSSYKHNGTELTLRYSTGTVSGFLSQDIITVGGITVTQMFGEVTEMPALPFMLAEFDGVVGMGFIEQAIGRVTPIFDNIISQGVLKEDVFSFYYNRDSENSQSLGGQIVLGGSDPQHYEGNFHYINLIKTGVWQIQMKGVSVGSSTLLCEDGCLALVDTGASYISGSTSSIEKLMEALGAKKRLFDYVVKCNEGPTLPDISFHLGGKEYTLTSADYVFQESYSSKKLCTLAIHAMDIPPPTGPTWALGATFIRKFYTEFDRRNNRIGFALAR
Put plainly: Compound was tested for the inhibition of human plasma renin(Hu Renin). The test is classed as cell-free.

As a reminder, the IC50 is the concentration at which inhibition is half-maximal. Lower therefore signals greater potency in that assay. The compound `CCCOP(=O)(OCCC)C(O)[C@H](CC1CCCCC1)NC(=O)[C@H](CSC)NC(=O)[C@H](Cc1ccccc1)NC(=O)N1CCOCC1` (some centres not stated) showed an IC50 of 60 nM.

Compound `CSC[C@H](NC(=O)[C@H](Cc1ccccc1)NC(=O)N1CCOCC1)C(=O)N[C@@H](CC1CCCCC1)C(O)P(=O)(OC(C)C)OC(C)C` (some centres not stated) returned a 50% inhibitory concentration (IC50) of 1400 nM.

`COP(=O)(OC)C(O)[C@H](CC1CCCCC1)NC(=O)[C@H](CCc1cnc[nH]1)NC(=O)[C@H](Cc1ccccc1)NC(=O)N1CCOCC1` (some centres not stated) came in with an IC50 of 190 nM.

`CSC[C@H](NC(=O)[C@H](Cc1ccccc1)NC(=O)N1CCOCC1)C(=O)N[C@@H](CC1CCCCC1)C(O)P(=O)(OCc1ccccc1)OCc1ccccc1` (some centres not stated) showed a half-maximal inhibitory concentration (IC50) of 190 nM.

Regarding `CCCC[C@H](NC(=O)[C@H](Cc1ccccc1)NC(=O)N1CCOCC1)C(=O)N[C@@H](CC1CCCCC1)C(O)P(=O)(OC)OC` (some centres not stated), half-maximal inhibition (IC50) required 32 nM.

Consider `CCOP(=O)(OCC)C(O)[C@H](CC1CCCCC1)NC(=O)[C@H](CSC)NC(=O)[C@H](Cc1ccccc1)NC(=O)N1CCOCC1` (some centres not stated), for which the half-inhibitory concentration (IC50) was found to be 25 nM.

On to `COP(=O)(OC)C(O)[C@H](CC1CCCCC1)NC(=O)[C@H](CSC)NC(=O)[C@H](Cc1ccccc1)NC(=O)N1CCOCC1` (some centres not stated), for which the concentration for half-maximal inhibition (IC50) came to 5.8 nM.
